Source: patent US20090155387A1, “STABLE PHARMACEUTICAL COMPOSITION COMPRISING BETA-LACTAM ANTIBIOTIC AND ION-CHELATING AGENT” (priority 2006, published 2009)
Entries after “also recorded” stand apart in the source; their conditions may differ. Blank lines part the entries; values can stand above or below the compound they belong to.

Tests used:
[1] = Amounts of β-lactam antibiotic, β-lactamase inhibitor and aminoglycoside antibiotic in solution over time (reverse-phase LC/HPLC); type: physicochemical
Protocol: The amounts of β-lactam antibiotics and β-lactamase inhibitor were determined using C18 reverse-phase LC and UV-VIS detector (Tianjin […] Co., Ltd., analysis method No. HM-K-03). The content of aminoglycoside antibiotics was measured using reverse-phase HPLC and evaporation-light-scattering detector (ELSD detector) (Tianjin […] Co., Ltd., analysis method No. HM-K-08). The amount of antibiotic component at each time point was expressed as a percentage with respect to the amount at the initial time. The relative amount of each antibiotic component in the composition at each time point was expressed as peak area ratio with respect to the corresponding peak area of an external standard.

[2] = HIAC light obscuration test (USP 788), particle content of solution preparations; type: physicochemical; details: HIAC test results, composition in the form of a liquid solution
Protocol: Light obscuration testing was performed for solution preparations prepared with some of the compositions described in the examples according to the method described in the United States Pharmacopeia (USP 788) using HIAC-3000 light obscuration detector. Particle content is denoted by the number of particles per milliliter of solution. The value is an average of two measurements. Samples were tested at 1 hour and at 20 hours.

[3] = in Example 8 solution from freeze-dried powder stored 7 days at 0° C., redissolved in injectable water, 0 h
[4] = in Example 8 solution from freeze-dried powder stored 7 days at 0° C., redissolved in injectable water, 1 h
[5] = in Example 8 solution from freeze-dried powder stored 7 days at 0° C., redissolved in injectable water, 2 h
[6] = in Example 8 solution from freeze-dried powder stored 7 days at 0° C., redissolved in injectable water, 4 h
[7] = in Example 8 solution from freeze-dried powder stored 7 days at 0° C., redissolved in injectable water, 6 h
[8] = in Example 8 solution from freeze-dried powder stored 7 days at 0° C., redissolved in injectable water, 8 h
[9] = in Example 17 solution, pH 6.5, room temperature, 0 h
[10] = in Example 17 solution, pH 6.5, room temperature, 1 h
[11] = in Example 17 solution, pH 6.5, room temperature, 2 h
[12] = in Example 17 solution, pH 6.5, room temperature, 4 h
[13] = in Example 17 solution, pH 6.5, room temperature, 6 h
[14] = in Example 17 solution, pH 6.5, room temperature, 8 h
[15] = in Example 18 solution (2.5% fructose), pH 6.5, room temperature, 0 h
[16] = in Example 18 solution (2.5% fructose), pH 6.5, room temperature, 1 h
[17] = in Example 18 solution (2.5% fructose), pH 6.5, room temperature, 2 h

Compound: O=C(O)CN(CCN(CC(=O)O)CC(=O)O)CC(=O)O [EDTA, ethylenediamine tetraacetic acid]
effect on aggregate particle formation in solution preparations [2]: can significantly reduce aggregate particle formation; also recorded: effective in inhibiting formation of aggregate particles

Compound: CCN[C@@H]1C[C@H](N)[C@@H](O[C@H]2O[C@H](CN)CC[C@H]2N)[C@H](O)[C@H]1O[C@H]1OC[C@](C)(O)[C@H](NC)[C@H]1O [Etimicin]
amount (percentage of initial amount) ([1]; in Example 6 solution, pH 6.5, room temperature, 0 h): 108.9% | amount (percentage of initial amount) ([1]; in Example 6 solution, pH 6.5, room temperature, 1 h): 100.2% | amount (percentage of initial amount) ([1]; in Example 6 solution, pH 6.5, room temperature, 2 h): 100.5% | amount (percentage of initial amount) ([1]; in Example 6 solution, pH 6.5, room temperature, 4 h): 100.4% | amount (percentage of initial amount) ([1]; in Example 6 solution, pH 6.5, room temperature, 6 h): 100.4% | amount (percentage of initial amount) ([1]; in Example 6 solution, pH 6.5, room temperature, 8 h): 97.50% | amount (percentage of initial amount) ([1]; in Example 13 solution (Example 12 solution + etimicin sulfate), 0 h): 100% | amount (percentage of initial amount) ([1]; in Example 13 solution (Example 12 solution + etimicin sulfate), 1 h): 98.8% | amount (percentage of initial amount) ([1]; in Example 13 solution (Example 12 solution + etimicin sulfate), 2 h): 97.5% | amount (percentage of initial amount) ([1]; in Example 13 solution (Example 12 solution + etimicin sulfate), 4 h): 98.4% | amount (percentage of initial amount) ([1]; in Example 13 solution (Example 12 solution + etimicin sulfate), 6 h): 95.6% | amount (percentage of initial amount) ([1]; in Example 13 solution (Example 12 solution + etimicin sulfate), 8 h): 92.8% | amount (percentage of initial amount) [1, 9]: 100.1% | amount (percentage of initial amount) [1, 10]: 100.4% | amount (percentage of initial amount) [1, 11]: 99.31% | amount (percentage of initial amount) [1, 12]: 99.56% | amount (percentage of initial amount) [1, 13]: 99.61% | amount (percentage of initial amount) [1, 14]: 99.25% | amount (percentage of initial amount) [1, 15]: 100.1% | amount (percentage of initial amount) [1, 16]: 100.6% | amount (percentage of initial amount) [1, 17]: 99.79% | amount (percentage of initial amount) ([1]; in Example 23 solution (2.5% fructose), pH 6.75, room temperature, 0 h): 104.5% | amount (percentage of initial amount) ([1]; in Example 23 solution (2.5% fructose), pH 6.75, room temperature, 1 h): 99.13% | amount (percentage of initial amount) ([1]; in Example 23 solution (2.5% fructose), pH 6.75, room temperature, 2 h): 103.3% | amount (percentage of initial amount) ([1]; in Example 23 solution (2.5% fructose), pH 6.75, room temperature, 4 h): 98.75% | amount (percentage of initial amount) ([1]; in Example 23 solution (2.5% fructose), pH 6.75, room temperature, 6 h): 101.6% | amount (percentage of initial amount) ([1]; in Example 23 solution (2.5% fructose), pH 6.75, room temperature, 8 h): 96.42% | amount (percentage of initial amount) ([1]; in Example 26 solution (2.5% fructose), pH 6.75, room temperature, 0 h): 94.69% | amount (percentage of initial amount) ([1]; in Example 26 solution (2.5% fructose), pH 6.75, room temperature, 1 h): 102.9% | amount (percentage of initial amount) ([1]; in Example 26 solution (2.5% fructose), pH 6.75, room temperature, 2 h): 109.3% | amount (percentage of initial amount) ([1]; in Example 26 solution (2.5% fructose), pH 6.75, room temperature, 4 h): 108.8% | amount (percentage of initial amount) ([1]; in Example 26 solution (2.5% fructose), pH 6.75, room temperature, 6 h): 109.6% | amount (percentage of initial amount) ([1]; in Example 26 solution (2.5% fructose), pH 6.75, room temperature, 8 h): 105.2%

Compound: Gentamicin
amount (percentage of initial amount) ([1]; in Example 5 solution, pH 6.75, room temperature, 0 h): 101.7% | amount (percentage of initial amount) ([1]; in Example 5 solution, pH 6.75, room temperature, 1 h): 104.2% | amount (percentage of initial amount) ([1]; in Example 5 solution, pH 6.75, room temperature, 2 h): 96.1% | amount (percentage of initial amount) ([1]; in Example 5 solution, pH 6.75, room temperature, 4 h): 100.1%

The remaining lines, values ahead:

amount (percentage of initial amount) ([1]; in Example 7 solution, pH 6.75, room temperature, 0 h): 97.01% | amount (percentage of initial amount) ([1]; in Example 7 solution, pH 6.75, room temperature, 1 h): 100.3% | amount (percentage of initial amount) ([1]; in Example 7 solution, pH 6.75, room temperature, 2 h): 96.40% | amount (percentage of initial amount) ([1]; in Example 7 solution, pH 6.75, room temperature, 4 h): 99.01% | amount (percentage of initial amount) ([1]; in Example 7 solution, pH 6.75, room temperature, 6 h): 98.91% | amount (percentage of initial amount) ([1]; in Example 7 solution, pH 6.75, room temperature, 8 h): 99.53% | amount (percentage of initial amount) [1, 3]: 98.75% | amount (percentage of initial amount) [1, 4]: 100.1% | amount (percentage of initial amount) [1, 5]: 99.97% | amount (percentage of initial amount) [1, 6]: 98.87% | amount (percentage of initial amount) [1, 7]: 99.27% | amount (percentage of initial amount) [1, 8]: 100.5% | amount (percentage of initial amount) ([1]; in Example 9 solution from freeze-dried powder stored 7 days at 0° C., redissolved in injectable water, 0 h): 92.24% | amount (percentage of initial amount) ([1]; in Example 9 solution from freeze-dried powder stored 7 days at 0° C., redissolved in injectable water, 1 h): 96.28% | amount (percentage of initial amount) ([1]; in Example 9 solution from freeze-dried powder stored 7 days at 0° C., redissolved in injectable water, 2 h): 94.97% | amount (percentage of initial amount) ([1]; in Example 9 solution from freeze-dried powder stored 7 days at 0° C., redissolved in injectable water, 4 h): 94.20% | amount (percentage of initial amount) ([1]; in Example 9 solution from freeze-dried powder stored 7 days at 0° C., redissolved in injectable water, 6 h): 97.91% | amount (percentage of initial amount) ([1]; in Example 9 solution from freeze-dried powder stored 7 days at 0° C., redissolved in injectable water, 8 h): 93.23% | amount (percentage of initial amount) ([1]; in Example 24 solution, pH 6.75, room temperature, 0 h): 110.2% | amount (percentage of initial amount) ([1]; in Example 24 solution, pH 6.75, room temperature, 1 h): 117.6% | amount (percentage of initial amount) ([1]; in Example 24 solution, pH 6.75, room temperature, 2 h): 119.4% | amount (percentage of initial amount) ([1]; in Example 24 solution, pH 6.75, room temperature, 4 h): 111.5% | amount (percentage of initial amount) ([1]; in Example 24 solution, pH 6.75, room temperature, 6 h): 113.4% | amount (percentage of initial amount) ([1]; in Example 24 solution, pH 6.75, room temperature, 8 h): 120.0%
Compound: CO/N=C(\C(=O)N[C@@H]1C(=O)N2C(C(=O)O)=C(CSc3nc(=O)c(=O)[nH]n3C)CS[C@H]12)c1csc(N)n1 [Ceftriaxone sodium]

amount (percentage of initial amount) ([1]; in Example 11 solution (pH 6.0) from freeze-dried powder stored 7 days at 0° C., redissolved, 0 h): 97.11% | amount (percentage of initial amount) ([1]; in Example 11 solution (pH 6.0) from freeze-dried powder stored 7 days at 0° C., redissolved, 1 h): 90.83% | amount (percentage of initial amount) ([1]; in Example 11 solution (pH 6.0) from freeze-dried powder stored 7 days at 0° C., redissolved, 2 h): 98.18% | amount (percentage of initial amount) ([1]; in Example 11 solution (pH 6.0) from freeze-dried powder stored 7 days at 0° C., redissolved, 4 h): 93.69% | amount (percentage of initial amount) ([1]; in Example 11 solution (pH 6.0) from freeze-dried powder stored 7 days at 0° C., redissolved, 6 h): 91.23% | amount (percentage of initial amount) ([1]; in Example 11 solution (pH 6.0) from freeze-dried powder stored 7 days at 0° C., redissolved, 8 h): 94.39% | amount (percentage of initial amount) [1, 9]: 116.6% | amount (percentage of initial amount) [1, 10]: 94.83% | amount (percentage of initial amount) [1, 11]: 91.86% | amount (percentage of initial amount) [1, 12]: 91.96% | amount (percentage of initial amount) [1, 13]: 91.52% | amount (percentage of initial amount) [1, 14]: 98.56% | amount (percentage of initial amount) [1, 15]: 96.48% | amount (percentage of initial amount) [1, 16]: 95.90% | amount (percentage of initial amount) [1, 17]: 71.70% | amount (percentage of initial amount) ([1]; in Example 18 solution (2.5% fructose), pH 6.5, room temperature, 4 h): 91.78% | amount (percentage of initial amount) ([1]; in Example 18 solution (2.5% fructose), pH 6.5, room temperature, 6 h): 93.08% | amount (percentage of initial amount) ([1]; in Example 18 solution (2.5% fructose), pH 6.5, room temperature, 8 h): 97.69%
Compound: CC1(C)S[C@@H]2[C@H](NC(=O)[C@H](NC(=O)N3CCN(S(C)(=O)=O)C3=O)c3ccccc3)C(=O)N2[C@H]1C(=O)O [Mezlocillin sodium]

amount (percentage of initial amount) [1, 3]: 102.2% | amount (percentage of initial amount) [1, 4]: 97.53% | amount (percentage of initial amount) [1, 5]: 94.16% | amount (percentage of initial amount) [1, 6]: 94.58% | amount (percentage of initial amount) [1, 7]: 95.45% | amount (percentage of initial amount) [1, 8]: 94.44% | amount (percentage of initial amount) ([1]; in Example 16 solution, pH 6.5, room temperature, 0 h): 98.77% | amount (percentage of initial amount) ([1]; in Example 16 solution, pH 6.5, room temperature, 1 h): 108.2% | amount (percentage of initial amount) ([1]; in Example 16 solution, pH 6.5, room temperature, 2 h): 110.8% | amount (percentage of initial amount) ([1]; in Example 16 solution, pH 6.5, room temperature, 4 h): 97.39% | amount (percentage of initial amount) ([1]; in Example 16 solution, pH 6.5, room temperature, 6 h): 106.3% | amount (percentage of initial amount) ([1]; in Example 16 solution, pH 6.5, room temperature, 8 h): 106.3% | amount (percentage of initial amount) ([1]; in Example 21 solution, pH 6.75, room temperature (22° C.), 0 h): 93.36% | amount (percentage of initial amount) ([1]; in Example 21 solution, pH 6.75, room temperature (22° C.), 1 h): 104.8% | amount (percentage of initial amount) ([1]; in Example 21 solution, pH 6.75, room temperature (22° C.), 2 h): 100.0% | amount (percentage of initial amount) ([1]; in Example 21 solution, pH 6.75, room temperature (22° C.), 4 h): 96.58% | amount (percentage of initial amount) ([1]; in Example 21 solution, pH 6.75, room temperature (22° C.), 6 h): 106.1% | amount (percentage of initial amount) ([1]; in Example 21 solution, pH 6.75, room temperature (22° C.), 8 h): 107.1%
Compound: C[C@]1(Cn2ccnn2)[C@H](C(=O)O)N2C(=O)C[C@H]2S1(=O)=O [Tazobactam sodium]
